pIC50: −log10 of the molar value. Read-outs that look alike come from different tables or passages of the source. One block for each compound: values may come before it.
Assays:
[1] = tested on: panel of 19 human breast cancer cell lines; test: Cell growth inhibition assay, panel of 19 human breast cancer cell lines; format: cell-based; conditions: for fold-difference between IC50's in the most sensitive and the least sensitive cell line: panel of 19 human breast cancer cell lines
Description: (§1) The following human breast cancer cell lines were obtained from the ATCC. Cells were maintained according to ATCC-recommended culture conditions. AU565 (ATCC Catalog No. ATCC Catalog. No. CRL-2351), BT-20 (ATCC Catalog No. HTB-19), MCF7 (ATCC Catalog No. HTB22), MDA-MB-231 (ATCC Catalog No. HTB-26), MDA-MB-435 (ATCC Catalog No. HTB-129), MDA-MB-468 (ATCC Catalog No. HTB-132), HCC38 (ATCC Catalog No. CRL-2314), HCC70 (ATCC Catalog No. CRL-2315), HCC1143 (ATCC Catalog No. CRL-2321), HCC1428 (ATCC Catalog No. CRL-2327), HCC1500 (ATCC Catalog No. CRL-2329), HCC1806 (ATCC Catalog No. CRL-2335), HCC1954 (ATCC Catalog No. CRL-2338), HCC2218 (ATCC Catalog No. CRL-2343), UACC-812 (ATCC Catalog No. CRL-1897), UACC-893 (ATCC Catalog No. CRL-1902), ZR-75-1 (ATCC Catalog No. CRL-1500), ZR-75-30 (ATCC Catalog No. CRL-1504).
(§2) Cultured human breast cancer cells were placed in 96-well plates and grown in the continuous presence of test compounds for 4 or 7 days. To expose the cells to test compounds for 7 days, medium was replaced with fresh medium containing compounds after 4 days of exposure and cells were incubated for 3 additional days. Cell growth was assessed using modifications (Amin et al., Cancer Res., 47:6040-6045, 1987; incorporated herein by reference) of a methylene blue-based microculture assay (Finlay et al., Anal. Biochem., 139:272-277, 1984; incorporated herein by reference).
Antiproliferative effects of four tubulin-binding anticancer agents were evaluated by a methylene blue-based cell growth inhibin assay in a panel of 19 human breast cancer cell lines. The following agents were used in this study: halichondrin analog E7389, hemiasterlin analog E7974, vinblastine, and paclitaxel. Each IC50 determination was conducted in at least three separate experiments. A presence of multidrug resistance efflux pump (P-glycoprotein or PgP) could markedly affect sensitivity of cell lines to test agents and thus mask correlations between beta-tubulin expression and cell lines' sensitivity to test agents. Cell lines were therefore tested for evidence of PgP expression by monitoring effects of the PgP blocker verapamil (used at a 10 μM concentration) on paclitaxel sensitivity. No evidence for PgP expression was found in any of the cell lines tested (Table 4). […] Inter-drug correlations were seen between sensitivities to the three microtubule polymerization inhibitors E7974, E7389, and vinblastine, but not between the microtubule polymerization stabilizer paclitaxel.

[2] = tested on: HCC1806 human breast cancer cell line; test: Cell growth inhibition assay (methylene blue), HCC1806; format: cell-based
Description: as §1, §2
(§3) To investigate the possible expression of PgP by the cell lines used in this study, the antiproliferative effects of paclitaxel were determined in the presence and absence of verapamil, a known inhibitor of PgP.

[3] = tested on: HCC1419 human breast cancer cell line; test: Cell growth inhibition assay (methylene blue), HCC1419; format: cell-based
Description: as §2, §3

[4] = tested on: ZR-75-30 human breast cancer cell line; test: Cell growth inhibition assay (methylene blue), ZR-75-30; format: cell-based
Description: as §1, §2, §3

[5] = tested on: HCC70 human breast cancer cell line; test: Cell growth inhibition assay (methylene blue), HCC70; format: cell-based
Description: as §1, §2, §3

[6] = tested on: BT-20 human breast cancer cell line; test: Cell growth inhibition assay (methylene blue), BT-20; format: cell-based
Description: as §1, §2, §3

[7] = tested on: MDA-MB-435 human breast cancer cell line; test: Cell growth inhibition assay (methylene blue), MDA-MB-435; format: cell-based
Description: as §1, §2, §3

[8] = tested on: ZR-75-1 human breast cancer cell line; test: Cell growth inhibition assay (methylene blue), ZR-75-1; format: cell-based
Description: as §1, §2, §3

[9] = tested on: HCC1428 human breast cancer cell line; test: Cell growth inhibition assay (methylene blue), HCC1428; format: cell-based
Description: as §1, §2, §3

[10] = tested on: MDA-MB-231 human breast cancer cell line; test: Cell growth inhibition assay (methylene blue), MDA-MB-231; format: cell-based
Description: as §1, §2, §3

[11] = tested on: MDA-MB-468 human breast cancer cell line; test: Cell growth inhibition assay (methylene blue), MDA-MB-468; format: cell-based
Description: as §1, §2, §3

[12] = tested on: UACC-893 human breast cancer cell line; test: Cell growth inhibition assay (methylene blue), UACC-893; format: cell-based
Description: as §1, §2, §3

[13] = tested on: HCC1954 human breast cancer cell line; test: Cell growth inhibition assay (methylene blue), HCC1954; format: cell-based
Description: as §1, §2, §3

[14] = tested on: HCC38 human breast cancer cell line; test: Cell growth inhibition assay (methylene blue), HCC38; format: cell-based
Description: as §1, §2, §3

[15] = tested on: AU565 human breast cancer cell line; test: Cell growth inhibition assay (methylene blue), AU565; format: cell-based
Description: as §1, §2, §3

[16] = tested on: HCC2218 human breast cancer cell line; test: Cell growth inhibition assay (methylene blue), HCC2218; format: cell-based
Description: as §1, §2, §3

[17] = tested on: MCF-7 human breast cancer cell line; test: Cell growth inhibition assay (methylene blue), MCF-7; format: cell-based
Description: as §1, §2, §3

[18] = tested on: HCC1143 human breast cancer cell line; test: Cell growth inhibition assay (methylene blue), HCC1143; format: cell-based
Description: as §1, §2, §3

[19] = tested on: HCC1500 human breast cancer cell line; test: Cell growth inhibition assay (methylene blue), HCC1500; format: cell-based
Description: as §1, §2, §3

[20] = tested on: UACC-812 human breast cancer cell line; test: Cell growth inhibition assay (methylene blue), UACC-812; format: cell-based
Description: as §1, §2, §3

[21] = tested on: cells expressing class II β-tubulin; conditions: Haber et al. J. Biol. Chem. 1995; cited from earlier work
[22] = continuous presence of compound 4 or 7 days, at least three experiments, read-out: Average IC50
[23] = HC-2218, continuous presence of compound 4 or 7 days, at least three experiments, read-out: Average IC50
[24] = MCF7, continuous presence of compound 4 or 7 days, at least three experiments, read-out: Average IC50
[25] = +10 μM verapamil (PgP blocker), read-out: Paclitaxel IC50 (+10 μM verapamil)
[26] = no verapamil, read-out: Paclitaxel IC50 (no verapamil)

SMILES: C/C(=C\[C@H](C(C)C)N(C)C(=O)[C@@H](NC(=O)[C@H]1CCCCN1C(C)C)C(C)(C)C)C(=O)O [E7974]
fold-difference between IC50's in the most sensitive and the least sensitive cell line [1]: 6.8 fold

pIC50 [2, 22]: 9.07
pIC50 [3, 22]: 8.77
pIC50 [4, 22]: 8.62
fold-difference between IC50's in the most sensitive and the least sensitive cell line [1]: 5.6 fold
pIC50 [6, 22]: 8.94
pIC50 [7, 22]: 9.37
pIC50 [8, 22]: 8.76
pIC50 [9, 22]: 9.26
pIC50 [10, 22]: 8.80
pIC50 [11, 22]: 9.09
pIC50 [12, 22]: 8.88
pIC50 [13, 22]: 9.15
pIC50 [14, 22]: 9.14
pIC50 [15, 22]: 8.98
pIC50 [16, 23]: 8.81
pIC50 [17, 24]: 9.05
pIC50 [18, 22]: 9.28
pIC50 [19, 22]: 9.25
pIC50 [20, 22]: 8.95
SMILES: CC[C@]1(O)C[C@@H]2CN(CCc3c([nH]c4ccccc34)[C@@](C(=O)OC)(c3cc4c(cc3OC)N(C)[C@H]3[C@@](O)(C(=O)OC)[C@H](OC(C)=O)[C@]5(CC)C=CCN6CC[C@]43[C@@H]65)C2)C1 [Vinblastine, vinblastine]
pIC50 [5, 22]: 9.10

pIC50 ([2]; HCC-1806, +10 μM verapamil (PgP blocker), read-out: Paclitaxel IC50 (+10 μM verapamil)): 8.72
pIC50 ([2]; HCC-1806, no verapamil, read-out: Paclitaxel IC50 (no verapamil)): 8.74
pIC50 [2, 22]: 8.68
pIC50 ([3]; HCC-1419, +10 μM verapamil (PgP blocker), read-out: Paclitaxel IC50 (+10 μM verapamil)): 8.15
pIC50 ([3]; HCC-1419, no verapamil, read-out: Paclitaxel IC50 (no verapamil)): 8.28
pIC50 [3, 22]: 8.27
pIC50 [4, 25]: 8.39
pIC50 [4, 22]: 8.39
pIC50 [4, 26]: 8.41
fold-difference between IC50's in the most sensitive and the least sensitive cell line [1]: 5.8 fold
pIC50 [6, 25]: 8.57
pIC50 [6, 22]: 8.58
pIC50 [6, 26]: 8.41
pIC50 [7, 25]: 8.57
pIC50 [7, 22]: 8.62
pIC50 [7, 26]: 8.59
pIC50 [8, 25]: 8.23
pIC50 [8, 22]: 8.47
pIC50 [8, 26]: 8.28
pIC50 ([9]; HCC-1428, +10 μM verapamil (PgP blocker), read-out: Paclitaxel IC50 (+10 μM verapamil)): 8.02
pIC50 ([9]; HCC-1428, no verapamil, read-out: Paclitaxel IC50 (no verapamil)): 8.05
pIC50 [9, 22]: 8.30
pIC50 [10, 25]: 8.29
pIC50 [10, 22]: 8.29
pIC50 [10, 26]: 8.31
pIC50 [11, 25]: 8.27
pIC50 [11, 22]: 8.37
pIC50 [11, 26]: 8.29
pIC50 [12, 25]: 8.39
pIC50 [12, 22]: 8.56
pIC50 [12, 26]: 8.20
pIC50 ([13]; HCC-1954, +10 μM verapamil (PgP blocker), read-out: Paclitaxel IC50 (+10 μM verapamil)): 7.93
pIC50 ([13]; HCC-1954, no verapamil, read-out: Paclitaxel IC50 (no verapamil)): 7.93
pIC50 [13, 22]: 8.07
pIC50 ([14]; HCC-38, +10 μM verapamil (PgP blocker), read-out: Paclitaxel IC50 (+10 μM verapamil)): 8.21
pIC50 ([14]; HCC-38, no verapamil, read-out: Paclitaxel IC50 (no verapamil)): 8.23
pIC50 [14, 22]: 8.53
pIC50 ([15]; AU-565, +10 μM verapamil (PgP blocker), read-out: Paclitaxel IC50 (+10 μM verapamil)): 8.32
pIC50 ([15]; AU-565, no verapamil, read-out: Paclitaxel IC50 (no verapamil)): 8.27
pIC50 [15, 22]: 8.60
pIC50 [16, 23]: 8.17
pIC50 ([16]; HCC-2218, +10 μM verapamil (PgP blocker), read-out: Paclitaxel IC50 (+10 μM verapamil)): 8.30
pIC50 ([16]; HCC-2218, no verapamil, read-out: Paclitaxel IC50 (no verapamil)): 8.25
pIC50 ([17]; MCF7, +10 μM verapamil (PgP blocker), read-out: Paclitaxel IC50 (+10 μM verapamil)): 8.57
pIC50 [17, 24]: 8.64
pIC50 ([17]; MCF7, no verapamil, read-out: Paclitaxel IC50 (no verapamil)): 8.48
pIC50 ([18]; HCC-1143, +10 μM verapamil (PgP blocker), read-out: Paclitaxel IC50 (+10 μM verapamil)): 8.54
pIC50 ([18]; HCC-1143, no verapamil, read-out: Paclitaxel IC50 (no verapamil)): 8.55
pIC50 [18, 22]: 8.68
pIC50 ([19]; HCC-1500, +10 μM verapamil (PgP blocker), read-out: Paclitaxel IC50 (+10 μM verapamil)): 8.49
pIC50 ([19]; HCC-1500, no verapamil, read-out: Paclitaxel IC50 (no verapamil)): 8.34
pIC50 [19, 22]: 8.61
pIC50 [20, 25]: 8.72
pIC50 [20, 22]: 8.84
pIC50 [20, 26]: 8.57
SMILES: CC(=O)O[C@H]1C(=O)[C@@]2(C)[C@H]([C@H](OC(=O)c3ccccc3)[C@]3(O)C[C@H](OC(=O)[C@H](O)[C@@H](NC(=O)c4ccccc4)c4ccccc4)C(C)=C1C3(C)C)[C@]1(OC(C)=O)CO[C@@H]1C[C@@H]2O [Paclitaxel, paclitaxel]
pIC50 ([5]; HCC-70, +10 μM verapamil (PgP blocker), read-out: Paclitaxel IC50 (+10 μM verapamil)): 8.72
pIC50 ([5]; HCC-70, no verapamil, read-out: Paclitaxel IC50 (no verapamil)): 8.70
pIC50 [5, 22]: 8.65
effectiveness in treating cells expressing class II β-tubulin [21]: not be effective

pIC50 [2, 22]: 9.13
pIC50 [3, 22]: 8.80
pIC50 [4, 22]: 8.74
fold-difference between IC50's in the most sensitive and the least sensitive cell line [1]: 6.2 fold
pIC50 ([1]; range over 19 human breast cancer cell lines): 8.74 to 9.54
pIC50 [6, 22]: 9.09
pIC50 [7, 22]: 9.54
pIC50 [8, 22]: 8.92
pIC50 [9, 22]: 9.28
pIC50 [10, 22]: 8.76
pIC50 [11, 22]: 9.35
pIC50 [12, 22]: 9.51
pIC50 [13, 22]: 9.43
pIC50 [14, 22]: 9.40
pIC50 [15, 22]: 9.19
pIC50 [16, 23]: 8.94
pIC50 [17, 24]: 8.84
pIC50 [18, 22]: 9.37
pIC50 [19, 22]: 9.25
pIC50 [20, 22]: 8.93
SMILES: C=C1C[C@@H]2CC[C@@]34C[C@H]5O[C@H]6[C@@H](O3)[C@H]3O[C@H](CC[C@@H]3O[C@H]6[C@H]5O4)CC(=O)C[C@@H]3[C@@H](OC)[C@@H](C[C@H](O)CN)O[C@H]3C[C@H]3O[C@@H](CC[C@@H]1O2)C[C@@H](C)C3=C [E7389]
pIC50 [5, 22]: 9.20

Source: patent publication US20060148014A1, “Tubulin isotype screening in cancer therapy using hemiasterlin analogs” (priority 2004, published 2006)
